Assay results reported in the kinase profiling compilation of Christmann-Franck et al. (2016).

What was measured:
Test in all cases: radiometric filter-binding kinase assay, Kinase HotSpot
Conditions in all cases: compound 0.5 µM; ATP 10 µM
MAP3K7 TAB1 (human) = MAP3K7 TAB1 (human) (UniProt O43318+Q15750)
SIK2 (human) = SIK2 (human) (UniProt Q9H0K1)
RPS6KA4 KD2 (human) = RPS6KA4 KD2 (human) (UniProt O75676)
STK3 (human) = STK3 (human) (UniProt Q13188)
MUSK (human) = MUSK (human) (UniProt O15146)
GSK3B (human) = GSK3B (human) (UniProt P49841)
Chain of GSK3B (human) (P49841 whole entry, looked up): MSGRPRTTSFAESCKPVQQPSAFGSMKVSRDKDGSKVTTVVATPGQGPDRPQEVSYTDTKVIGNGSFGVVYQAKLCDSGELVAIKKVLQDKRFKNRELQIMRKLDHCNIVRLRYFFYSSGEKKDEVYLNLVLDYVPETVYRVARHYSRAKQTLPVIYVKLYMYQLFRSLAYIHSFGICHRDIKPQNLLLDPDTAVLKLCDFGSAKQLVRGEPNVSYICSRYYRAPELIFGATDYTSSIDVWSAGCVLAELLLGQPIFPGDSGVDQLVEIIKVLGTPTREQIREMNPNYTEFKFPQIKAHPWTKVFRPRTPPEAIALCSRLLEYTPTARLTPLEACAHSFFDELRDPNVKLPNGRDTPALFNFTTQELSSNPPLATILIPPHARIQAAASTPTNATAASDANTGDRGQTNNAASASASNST

PAK3 (human) = PAK3 (human) (UniProt O75914)
Chain of PAK3 (human) (O75914 whole entry, looked up): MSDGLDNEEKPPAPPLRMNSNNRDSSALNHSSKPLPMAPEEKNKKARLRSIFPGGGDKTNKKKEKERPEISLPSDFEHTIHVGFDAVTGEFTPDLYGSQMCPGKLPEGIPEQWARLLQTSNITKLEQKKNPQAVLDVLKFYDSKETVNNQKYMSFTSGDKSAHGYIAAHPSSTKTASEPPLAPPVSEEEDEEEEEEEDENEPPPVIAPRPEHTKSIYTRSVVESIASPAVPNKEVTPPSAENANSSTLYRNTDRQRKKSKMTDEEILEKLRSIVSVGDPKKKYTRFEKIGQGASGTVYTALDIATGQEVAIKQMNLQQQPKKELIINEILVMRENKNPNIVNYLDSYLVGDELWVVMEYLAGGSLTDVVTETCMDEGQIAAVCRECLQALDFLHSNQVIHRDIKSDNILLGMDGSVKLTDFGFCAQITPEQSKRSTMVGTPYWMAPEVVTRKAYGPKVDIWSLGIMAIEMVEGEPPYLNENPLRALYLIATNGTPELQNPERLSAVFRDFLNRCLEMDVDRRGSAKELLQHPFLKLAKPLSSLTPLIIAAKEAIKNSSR

CAMKK1 (human) = CAMKK1 (human) (UniProt Q8N5S9)
Chain of CAMKK1 (human) (Q8N5S9 whole entry, looked up): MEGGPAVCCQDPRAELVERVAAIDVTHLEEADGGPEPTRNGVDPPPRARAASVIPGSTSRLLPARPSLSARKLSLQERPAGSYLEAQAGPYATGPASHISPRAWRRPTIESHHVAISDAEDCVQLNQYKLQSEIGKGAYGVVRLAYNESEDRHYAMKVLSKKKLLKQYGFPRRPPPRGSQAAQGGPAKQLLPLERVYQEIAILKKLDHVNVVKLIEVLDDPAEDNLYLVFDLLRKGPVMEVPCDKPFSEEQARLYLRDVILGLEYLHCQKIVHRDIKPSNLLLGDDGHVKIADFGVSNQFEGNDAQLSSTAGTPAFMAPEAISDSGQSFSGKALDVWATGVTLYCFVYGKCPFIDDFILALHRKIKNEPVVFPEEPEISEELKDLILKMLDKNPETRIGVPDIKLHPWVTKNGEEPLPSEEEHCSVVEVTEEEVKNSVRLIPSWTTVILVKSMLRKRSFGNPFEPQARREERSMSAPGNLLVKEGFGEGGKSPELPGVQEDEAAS

CAMKK2 (human) = CAMKK2 (human) (UniProt Q96RR4)
Chain of CAMKK2 (human) (Q96RR4 whole entry, looked up): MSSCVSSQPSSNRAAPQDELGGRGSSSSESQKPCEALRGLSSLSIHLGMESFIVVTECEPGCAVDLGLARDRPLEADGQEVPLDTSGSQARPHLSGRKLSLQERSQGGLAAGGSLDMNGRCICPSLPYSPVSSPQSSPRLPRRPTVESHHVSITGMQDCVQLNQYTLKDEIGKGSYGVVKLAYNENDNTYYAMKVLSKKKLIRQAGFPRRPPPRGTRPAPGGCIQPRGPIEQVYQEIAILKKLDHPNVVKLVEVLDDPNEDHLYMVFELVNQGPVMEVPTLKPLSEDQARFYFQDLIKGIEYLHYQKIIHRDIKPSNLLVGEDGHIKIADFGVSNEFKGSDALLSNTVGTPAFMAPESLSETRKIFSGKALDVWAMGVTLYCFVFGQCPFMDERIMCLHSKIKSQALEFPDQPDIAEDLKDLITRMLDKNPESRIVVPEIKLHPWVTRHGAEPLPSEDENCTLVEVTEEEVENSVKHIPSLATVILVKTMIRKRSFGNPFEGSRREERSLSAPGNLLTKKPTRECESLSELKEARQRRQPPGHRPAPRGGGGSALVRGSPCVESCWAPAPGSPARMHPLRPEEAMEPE

NEK9 (human) = NEK9 (human) (UniProt Q8TD19)
Chain of NEK9 (human) (Q8TD19 whole entry, looked up): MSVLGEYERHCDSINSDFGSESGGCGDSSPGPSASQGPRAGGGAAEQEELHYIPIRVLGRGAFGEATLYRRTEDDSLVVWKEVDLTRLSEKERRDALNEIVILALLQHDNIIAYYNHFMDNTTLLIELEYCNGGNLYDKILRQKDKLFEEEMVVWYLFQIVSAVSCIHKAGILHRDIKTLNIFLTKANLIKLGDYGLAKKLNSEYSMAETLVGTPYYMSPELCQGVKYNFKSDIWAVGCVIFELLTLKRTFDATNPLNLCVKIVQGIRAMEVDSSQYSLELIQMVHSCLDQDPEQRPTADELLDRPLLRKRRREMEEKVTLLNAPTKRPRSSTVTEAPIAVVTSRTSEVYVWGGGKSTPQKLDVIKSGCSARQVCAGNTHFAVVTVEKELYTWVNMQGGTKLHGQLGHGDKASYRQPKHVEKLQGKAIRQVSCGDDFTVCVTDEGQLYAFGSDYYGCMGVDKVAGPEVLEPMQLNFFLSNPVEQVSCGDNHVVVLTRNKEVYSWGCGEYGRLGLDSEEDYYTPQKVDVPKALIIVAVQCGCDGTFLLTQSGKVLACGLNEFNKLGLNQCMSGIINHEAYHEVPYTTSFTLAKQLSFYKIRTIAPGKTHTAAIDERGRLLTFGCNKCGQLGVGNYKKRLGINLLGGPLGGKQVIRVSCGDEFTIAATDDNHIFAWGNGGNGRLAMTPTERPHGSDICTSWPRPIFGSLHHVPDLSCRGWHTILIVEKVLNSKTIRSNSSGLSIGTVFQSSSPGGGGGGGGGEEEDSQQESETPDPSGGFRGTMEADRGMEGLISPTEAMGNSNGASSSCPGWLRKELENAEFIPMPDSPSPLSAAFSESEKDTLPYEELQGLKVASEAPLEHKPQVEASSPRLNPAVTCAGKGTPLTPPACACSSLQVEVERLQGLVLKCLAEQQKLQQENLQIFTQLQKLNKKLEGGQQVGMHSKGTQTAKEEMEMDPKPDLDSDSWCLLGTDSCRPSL

AKT2 (human) = AKT2 (human) (UniProt P31751)
LIMK1 (human) = LIMK1 (human) (UniProt P53667)
GSG2 (human) = GSG2 (human) (UniProt Q8TF76)
EPHA5 (human) = EPHA5 (human) (UniProt P54756)
PKN1 (human) = PKN1 (human) (UniProt Q16512)
MAPKAPK3 (human) = MAPKAPK3 (human) (UniProt Q16644)
Chain of MAPKAPK3 (human) (Q16644 whole entry, looked up): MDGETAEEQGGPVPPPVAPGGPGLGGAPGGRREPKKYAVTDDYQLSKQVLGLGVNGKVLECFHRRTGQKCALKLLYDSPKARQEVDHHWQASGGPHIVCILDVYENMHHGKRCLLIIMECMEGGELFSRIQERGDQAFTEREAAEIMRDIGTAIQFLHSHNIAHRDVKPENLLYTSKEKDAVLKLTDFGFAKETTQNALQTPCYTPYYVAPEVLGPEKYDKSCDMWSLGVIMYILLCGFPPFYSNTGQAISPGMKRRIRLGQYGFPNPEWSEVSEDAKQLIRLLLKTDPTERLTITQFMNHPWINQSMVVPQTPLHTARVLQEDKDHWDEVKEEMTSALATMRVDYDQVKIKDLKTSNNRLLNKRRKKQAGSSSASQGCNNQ

STK25 (human) = STK25 (human) (UniProt O00506)
PDPK1 (human) = PDPK1 (human) (UniProt O15530)
CAMK1G (human) = CAMK1G (human) (UniProt Q96NX5)
Chain of CAMK1G (human) (Q96NX5 whole entry, looked up): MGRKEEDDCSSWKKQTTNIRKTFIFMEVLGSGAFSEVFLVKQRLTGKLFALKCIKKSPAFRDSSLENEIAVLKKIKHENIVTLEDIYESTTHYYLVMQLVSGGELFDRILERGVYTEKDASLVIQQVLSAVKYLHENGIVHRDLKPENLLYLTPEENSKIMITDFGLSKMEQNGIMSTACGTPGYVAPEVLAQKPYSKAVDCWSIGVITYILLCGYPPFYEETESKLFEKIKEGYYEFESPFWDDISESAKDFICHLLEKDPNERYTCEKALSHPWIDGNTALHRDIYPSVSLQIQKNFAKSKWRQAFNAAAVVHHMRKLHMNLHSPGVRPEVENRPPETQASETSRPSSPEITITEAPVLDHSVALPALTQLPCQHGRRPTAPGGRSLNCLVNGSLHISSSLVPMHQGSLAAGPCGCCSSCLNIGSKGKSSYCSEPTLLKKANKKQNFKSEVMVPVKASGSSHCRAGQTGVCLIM

ADRBK1 (human) = ADRBK1 (human) (UniProt P25098)
MST1R (human) = MST1R (human) (UniProt Q04912)
YES1 (human) = YES1 (human) (UniProt P07947)
MAPK1 (human) = MAPK1 (human) (UniProt P28482)
FYN (human) = FYN (human) (UniProt P06241)
CSF1R (human) = CSF1R (human) (UniProt P07333)
NEK7 (human) = NEK7 (human) (UniProt Q8TDX7)
STK4 (human) = STK4 (human) (UniProt Q13043)
MAP3K2 (human) = MAP3K2 (human) (UniProt Q9Y2U5)
MAPKAPK5 (human) = MAPKAPK5 (human) (UniProt Q8IW41)
ROCK1 (human) = ROCK1 (human) (UniProt Q13464)
EPHA3 (human) = EPHA3 (human) (UniProt P29320)
Chain of EPHA3 (human) (P29320 whole entry, looked up): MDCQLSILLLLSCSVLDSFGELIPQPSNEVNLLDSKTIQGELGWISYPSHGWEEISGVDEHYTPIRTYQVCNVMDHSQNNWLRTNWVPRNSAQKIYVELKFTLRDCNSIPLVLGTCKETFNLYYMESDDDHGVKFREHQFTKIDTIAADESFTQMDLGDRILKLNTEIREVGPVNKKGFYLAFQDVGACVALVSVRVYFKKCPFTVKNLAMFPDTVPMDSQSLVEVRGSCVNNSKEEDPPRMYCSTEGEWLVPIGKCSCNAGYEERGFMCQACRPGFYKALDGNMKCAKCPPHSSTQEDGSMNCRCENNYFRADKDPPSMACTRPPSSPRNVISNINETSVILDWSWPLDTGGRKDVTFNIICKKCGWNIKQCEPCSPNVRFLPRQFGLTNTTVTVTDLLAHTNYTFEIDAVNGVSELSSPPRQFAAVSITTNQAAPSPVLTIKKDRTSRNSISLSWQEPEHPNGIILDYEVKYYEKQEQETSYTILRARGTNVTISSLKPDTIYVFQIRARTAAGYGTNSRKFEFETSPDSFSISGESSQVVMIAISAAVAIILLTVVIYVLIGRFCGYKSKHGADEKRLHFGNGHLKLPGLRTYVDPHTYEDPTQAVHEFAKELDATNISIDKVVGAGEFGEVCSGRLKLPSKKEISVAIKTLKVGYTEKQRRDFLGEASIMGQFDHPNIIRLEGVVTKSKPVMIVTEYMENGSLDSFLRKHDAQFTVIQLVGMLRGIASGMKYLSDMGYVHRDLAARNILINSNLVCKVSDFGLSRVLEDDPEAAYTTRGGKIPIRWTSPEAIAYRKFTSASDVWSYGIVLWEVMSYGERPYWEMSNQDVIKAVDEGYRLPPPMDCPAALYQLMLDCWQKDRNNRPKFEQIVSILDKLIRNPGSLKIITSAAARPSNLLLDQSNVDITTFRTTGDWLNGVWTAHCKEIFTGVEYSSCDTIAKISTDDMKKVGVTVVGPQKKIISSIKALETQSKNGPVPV

EPHA7 (human) = EPHA7 (human) (UniProt Q15375)
STK39 (human) = STK39 (human) (UniProt Q9UEW8)
HIPK3 (human) = HIPK3 (human) (UniProt Q9H422)
AURKA (human) = AURKA (human) (UniProt O14965)
MARK1 (human) = MARK1 (human) (UniProt Q9P0L2)
FLT3 (human) = FLT3 (human) (UniProt P36888)
CDK5 CDK5R1 p25 (human) = CDK5 CDK5R1 p25 (human) (UniProt Q00535+Q15078)
GSK3A (human) = GSK3A (human) (UniProt P49840)
PDGFRA (human) = PDGFRA (human) (UniProt P16234)

Molecule `O=S(=O)(c1cccc2cnccc12)N1CCCNCC1` has a residual activity (MAP3K7 TAB1 (human)) of 106%, a residual activity (SIK2 (human)) of 97.7% and a residual activity (RPS6KA4 KD2 (human)) of 81.8%. For the same molecule, the residual activity (STK3 (human)) was 90%, the residual activity (MUSK (human)) was 97.6% and the residual activity (GSK3B (human)) was 102%. The residual activity (PAK3 (human)) was 103%, the residual activity (CAMKK1 (human)) was 108% and the residual activity (CAMKK2 (human)) was 95.9%. For the same molecule, the residual activity (NEK9 (human)) was 95.9%, the residual activity (AKT2 (human)) was 115% and the residual activity (LIMK1 (human)) was 100%. For the same molecule, the residual activity (GSG2 (human)) was 86.6%, the residual activity (EPHA5 (human)) was 90.5% and the residual activity (PKN1 (human)) was 40.5%. For the same molecule, the residual activity (MAPKAPK3 (human)) was 99.7%, the residual activity (STK25 (human)) was 84.8% and the residual activity (PDPK1 (human)) was 91.3%. It also gave a residual activity (CAMK1G (human)) of 101%, a residual activity (ADRBK1 (human)) of 105% and a residual activity (MST1R (human)) of 92.7%. The residual activity (YES1 (human)) was 96.5%, the residual activity (MAPK1 (human)) was 98.1% and the residual activity (FYN (human)) was 106%. For the same molecule, the residual activity (CSF1R (human)) was 97.9%, the residual activity (NEK7 (human)) was 97.5% and the residual activity (STK4 (human)) was 94.8%. For the same molecule, the residual activity (MAP3K2 (human)) was 77.8%, the residual activity (MAPKAPK5 (human)) was 72.6% and the residual activity (ROCK1 (human)) was 60.2%. It also gave a residual activity (EPHA3 (human)) of 105%, a residual activity (EPHA7 (human)) of 97.3% and a residual activity (STK39 (human)) of 103%. It also gave a residual activity (HIPK3 (human)) of 107%, a residual activity (AURKA (human)) of 101% and a residual activity (MARK1 (human)) of 98.6%. The residual activity (FLT3 (human)) was 103%.
For `c1ccc(-c2n[nH]c3c2oc2ccccc23)cc1`, the residual activity (MAP3K7 TAB1 (human)) was 104%, the residual activity (SIK2 (human)) was 98.3% and the residual activity (RPS6KA4 KD2 (human)) was 90.2%. The residual activity (STK3 (human)) was 49.6%, the residual activity (MUSK (human)) was 72.6% and the residual activity (GSK3B (human)) was 105%. It also gave a residual activity (PAK3 (human)) of 89.2%, a residual activity (CDK5 CDK5R1 p25 (human)) of 99% and a residual activity (CAMKK1 (human)) of 97%. For the same molecule, the residual activity (CAMKK2 (human)) was 87.5%, the residual activity (NEK9 (human)) was 99% and the residual activity (AKT2 (human)) was 112%. It also gave a residual activity (LIMK1 (human)) of 71.2%, a residual activity (GSG2 (human)) of 99.3% and a residual activity (EPHA5 (human)) of 92.1%. For the same molecule, the residual activity (PKN1 (human)) was 94.1%, the residual activity (GSK3A (human)) was 91.4% and the residual activity (MAPKAPK3 (human)) was 100%. For the same molecule, the residual activity (STK25 (human)) was 89.6%, the residual activity (PDPK1 (human)) was 94.7% and the residual activity (CAMK1G (human)) was 100%. The residual activity (ADRBK1 (human)) was 104%, the residual activity (MST1R (human)) was 87.4% and the residual activity (YES1 (human)) was 86.1%. It also gave a residual activity (MAPK1 (human)) of 118%, a residual activity (FYN (human)) of 104% and a residual activity (CSF1R (human)) of 78.1%. It also gave a residual activity (NEK7 (human)) of 105%, a residual activity (STK4 (human)) of 99.8% and a residual activity (MAP3K2 (human)) of 85.9%. It also gave a residual activity (MAPKAPK5 (human)) of 103%, a residual activity (ROCK1 (human)) of 99.1% and a residual activity (EPHA3 (human)) of 104%. It also gave a residual activity (EPHA7 (human)) of 104%, a residual activity (STK39 (human)) of 120% and a residual activity (HIPK3 (human)) of 80.7%. For the same molecule, the residual activity (PDGFRA (human)) was 73.7%, the residual activity (AURKA (human)) was 103% and the residual activity (MARK1 (human)) was 98.6%. It also gave a residual activity (FLT3 (human)) of 12.1%.
With `CC#CC(=O)Nc1cc2c(Nc3ccc(F)c(Cl)c3)ncnc2cn1` the residual activity (MAP3K7 TAB1 (human)) was 100%, the residual activity (SIK2 (human)) was 81.3% and the residual activity (RPS6KA4 KD2 (human)) was 100%. For the same molecule, the residual activity (STK3 (human)) was 106%, the residual activity (MUSK (human)) was 79.6% and the residual activity (GSK3B (human)) was 93%. It also gave a residual activity (PAK3 (human)) of 99%, a residual activity (CDK5 CDK5R1 p25 (human)) of 99.2% and a residual activity (CAMKK1 (human)) of 124%. It also gave a residual activity (CAMKK2 (human)) of 103%, a residual activity (NEK9 (human)) of 104% and a residual activity (LIMK1 (human)) of 84.2%. It also gave a residual activity (GSG2 (human)) of 101%, a residual activity (EPHA5 (human)) of 101% and a residual activity (PKN1 (human)) of 101%. For the same molecule, the residual activity (GSK3A (human)) was 104%, the residual activity (MAPKAPK3 (human)) was 105% and the residual activity (STK25 (human)) was 97.1%. The residual activity (PDPK1 (human)) was 99.6%, the residual activity (CAMK1G (human)) was 99.2% and the residual activity (ADRBK1 (human)) was 98.3%. It also gave a residual activity (MST1R (human)) of 104%, a residual activity (YES1 (human)) of 82.3% and a residual activity (MAPK1 (human)) of 101%. The residual activity (FYN (human)) was 95.8%, the residual activity (CSF1R (human)) was 101% and the residual activity (NEK7 (human)) was 98.2%. It also gave a residual activity (STK4 (human)) of 98.7%, a residual activity (MAP3K2 (human)) of 107% and a residual activity (MAPKAPK5 (human)) of 96.3%. It also gave a residual activity (ROCK1 (human)) of 96.2%, a residual activity (EPHA3 (human)) of 99.8% and a residual activity (EPHA7 (human)) of 91.3%. For the same molecule, the residual activity (STK39 (human)) was 91.3%, the residual activity (HIPK3 (human)) was 92.9% and the residual activity (PDGFRA (human)) was 94.9%. It also gave a residual activity (AURKA (human)) of 96.5%, a residual activity (MARK1 (human)) of 98.2% and a residual activity (FLT3 (human)) of 92.1%.
